# Test results: ChEMBL document CHEMBL3865792, “Antioxidant and antitumor activity of trolox, trolox succinate, and α-tocopheryl succinate conjugates with nitroxides” (Eur J Med Chem, 2016)
# System: not listed separately
# Assay: Ratio of IC50 for human U937 cells to concentration causing antioxidant activity in Salmonella typhimurium TA102 harboring […] mutant
# Type: functional, U-937
# Details: not given
row,Structure (SMILES),Ratio
1,Cc1c(C)c2c(c(C)c1OC(=O)CCC(=O)O)CCC(C)(C(=O)NC1CC(C)(C)N([O])C(C)(C)C1)O2 (stereo not given),100 - 1000

# System: not listed separately
# Assay: Cytotoxicity against hamster AG17-1 cells assessed as reduction in cell viability at 300 uM after 72 hrs by MTT assay
# Type: toxicity, cell-based, Cricetulus griseus
# Details: Chinese hamster, read-out: INH
row,Structure (SMILES),"cytotoxicity at 72 h, 300 µM"
1,Cc1c(C)c2c(c(C)c1OC(=O)CCC(=O)O)CCC(C)(C(=O)NC1CC(C)(C)N([O])C(C)(C)C1)O2 (stereo not given),36%

# System: not listed separately
# Assay: Cytotoxicity against human HepG2 cells assessed as reduction in cell viability after 72 hrs by MTT assay
# Type: functional, cell-based
# Details: HepG2, 72 h
row,Structure (SMILES),IC50
1,Cc1c(C)c2c(c(C)c1OC(=O)CCC(=O)O)CCC(C)(C(=O)NC1CC(C)(C)N([O])C(C)(C)C1)O2 (stereo not given),> 300 µM

# System: not listed separately
# Assay: Ratio of IC50 for human CEM13 cells to concentration causing antioxidant activity in Salmonella typhimurium TA102 harboring […] mutant
# Type: functional
# Details: not given
row,Structure (SMILES),Ratio
1,Cc1c(C)c2c(c(C)c1OC(=O)CCC(=O)O)CCC(C)(C(=O)NC1CC(C)(C)N([O])C(C)(C)C1)O2 (stereo not given),100 - 1000

# System: not listed separately
# Assay: Cytotoxicity against human MCF7 cells assessed as reduction in cell viability after 72 hrs by MTT assay
# Type: functional, cell-based
# Details: MCF7, 72 h
row,Structure (SMILES),IC50
1,Cc1c(C)c2c(c(C)c1OC(=O)CCC(=O)O)CCC(C)(C(=O)NC1CC(C)(C)N([O])C(C)(C)C1)O2 (stereo not given),> 300 µM

# System: not listed separately
# Assay: Cytotoxicity against human MCF7 cells assessed as reduction in cell viability at 300 uM after 72 hrs by MTT assay
# Type: functional
# Details: MCF7, 72 h
row,Structure (SMILES),inhibition at 300 µM
1,Cc1c(C)c2c(c(C)c1OC(=O)CCC(=O)O)CCC(C)(C(=O)NC1CC(C)(C)N([O])C(C)(C)C1)O2 (stereo not given),15%

# System: not listed separately
# Assay: Cytotoxicity against human CEM13 cells assessed as reduction in cell viability after 72 hrs by MTT assay
# Type: functional, cell-based
# Details: CEM13, 72 h
row,Structure (SMILES),IC50
1,Cc1c(C)c2c(c(C)c1OC(=O)CCC(=O)O)CCC(C)(C(=O)NC1CC(C)(C)N([O])C(C)(C)C1)O2 (stereo not given),> 300 µM

# System: not listed separately
# Assay: Ratio of IC50 for human MCF7 cells to concentration causing antioxidant activity in Salmonella typhimurium TA102 harboring […] mutant
# Type: functional
# Details: not given
row,Structure (SMILES),Ratio
1,Cc1c(C)c2c(c(C)c1OC(=O)CCC(=O)O)CCC(C)(C(=O)NC1CC(C)(C)N([O])C(C)(C)C1)O2 (stereo not given),100 - 1000

# System: not listed separately
# Assay: Cytotoxicity against human MT4 cells assessed as reduction in cell viability after 72 hrs by MTT assay
# Type: functional, cell-based
# Details: MT4, 72 h
row,Structure (SMILES),IC50
1,Cc1c(C)c2c(c(C)c1OC(=O)CCC(=O)O)CCC(C)(C(=O)NC1CC(C)(C)N([O])C(C)(C)C1)O2 (stereo not given),165 µM

# System: Salmonella enterica subsp. enterica serovar Typhimurium
# Assay: Antioxidant activity in Salmonella typhimurium TA102 harboring […] mutant assessed as inhibition of t-BuO2H-dependant mutant formation at 30 uM preincubated with compound followed by t-BuO2H addition after 48 hrs by Ames test
# Type: functional
# Details: not given
row,Structure (SMILES),inhibition
1,Cc1c(C)c2c(c(C)c1OC(=O)CCC(=O)O)CCC(C)(C(=O)NC1CC(C)(C)N([O])C(C)(C)C1)O2 (stereo not given),19%

# System: not listed separately
# Assay: Cytotoxicity against human RPMI8226 cells assessed as reduction in cell viability after 72 hrs by MTT assay
# Type: functional, cell-based
# Details: RPMI-8226, 72 h
row,Structure (SMILES),IC50
1,Cc1c(C)c2c(c(C)c1OC(=O)CCC(=O)O)CCC(C)(C(=O)NC1CC(C)(C)N([O])C(C)(C)C1)O2 (stereo not given),> 300 µM

# System: not listed separately
# Assay: Genotoxicity in Escherichia coli PQ37 expressing lacZ gene assessed as ratio of inducible beta-galactosidase activity to alkaline phosphatase activity at 30 mM after 2 hrs by SOS-chromotest relative to control
# Type: toxicity
# Details: Escherichia coli PQ37 cells expressing lacZ gene, read-out: FC
row,Structure (SMILES),"fold induction at 2 h, 30000 µM"
1,Cc1c(C)c2c(c(C)c1OC(=O)CCC(=O)O)CCC(C)(C(=O)NC1CC(C)(C)N([O])C(C)(C)C1)O2 (stereo not given),1.1

# System: Salmonella enterica subsp. enterica serovar Typhimurium
# Assay: Antioxidant activity in Salmonella typhimurium TA102 harboring […] mutant assessed as inhibition of t-BuO2H-dependant mutant formation at 3 uM preincubated with compound followed by t-BuO2H addition after 48 hrs by Ames test
# Type: functional
# Details: not given
row,Structure (SMILES),inhibition
1,Cc1c(C)c2c(c(C)c1OC(=O)CCC(=O)O)CCC(C)(C(=O)NC1CC(C)(C)N([O])C(C)(C)C1)O2 (stereo not given),18%

# System: not listed separately
# Assay: Cytotoxicity against human U937 cells assessed as reduction in cell viability after 72 hrs by MTT assay
# Type: functional, cell-based
# Details: U-937, 72 h
row,Structure (SMILES),IC50
1,Cc1c(C)c2c(c(C)c1OC(=O)CCC(=O)O)CCC(C)(C(=O)NC1CC(C)(C)N([O])C(C)(C)C1)O2 (stereo not given),123 µM

# System: Salmonella typhimurium
# Assay: Genotoxicity in Salmonella typhimurium TA102 harboring […] mutant assessed as frequency of reversion from histidine auxotrophy to prototrophy at 30 mM after 48 hrs by Ames test (reference value: 209 +/- 10 No _unit)
# Type: toxicity, organism-based
# Details: salmonella enterica subsp. enterica serovar typhimurium, 30000 µM
row,Structure (SMILES),Activity
1,Cc1c(C)c2c(c(C)c1OC(=O)CCC(=O)O)CCC(C)(C(=O)NC1CC(C)(C)N([O])C(C)(C)C1)O2 (stereo not given),216

# System: not listed separately
# Assay: Ratio of IC50 for human HEPG2 cells to concentration causing antioxidant activity in Salmonella typhimurium TA102 harboring […] mutant
# Type: functional
# Details: not given
row,Structure (SMILES),Ratio
1,Cc1c(C)c2c(c(C)c1OC(=O)CCC(=O)O)CCC(C)(C(=O)NC1CC(C)(C)N([O])C(C)(C)C1)O2 (stereo not given),100 - 1000

# System: not listed separately
# Assay: Ratio of IC50 for human MT4 cells to concentration causing antioxidant activity in Salmonella typhimurium TA102 harboring […] mutant
# Type: functional
# Details: not given
row,Structure (SMILES),Ratio
1,Cc1c(C)c2c(c(C)c1OC(=O)CCC(=O)O)CCC(C)(C(=O)NC1CC(C)(C)N([O])C(C)(C)C1)O2 (stereo not given),100 - 1000

# System: not listed separately
# Assay: Ratio of IC50 for human RPMI8226 cells to concentration causing antioxidant activity in Salmonella typhimurium TA102 harboring […] mutant
# Type: functional, RPMI-8226
# Details: not given
row,Structure (SMILES),Ratio
1,Cc1c(C)c2c(c(C)c1OC(=O)CCC(=O)O)CCC(C)(C(=O)NC1CC(C)(C)N([O])C(C)(C)C1)O2 (stereo not given),100 - 1000

# System: not listed separately
# Assay: Cytotoxicity against hamster AG17-1 cells assessed as reduction in cell viability after 72 hrs by MTT assay
# Type: toxicity, cell-based, Cricetulus griseus
# Details: Chinese hamster
row,Structure (SMILES),IC50 at 72 h
1,Cc1c(C)c2c(c(C)c1OC(=O)CCC(=O)O)CCC(C)(C(=O)NC1CC(C)(C)N([O])C(C)(C)C1)O2 (stereo not given),> 300 µM

# System: not listed separately
# Assay: Cytotoxicity against human RPMI8226 cells assessed as reduction in cell viability at 300 uM after 72 hrs by MTT assay
# Type: functional
# Details: RPMI-8226, 72 h
row,Structure (SMILES),inhibition at 300 µM
1,Cc1c(C)c2c(c(C)c1OC(=O)CCC(=O)O)CCC(C)(C(=O)NC1CC(C)(C)N([O])C(C)(C)C1)O2 (stereo not given),14%

# System: not listed separately
# Assay: Cytotoxicity against human CEM13 cells assessed as reduction in cell viability at 300 uM after 72 hrs by MTT assay
# Type: functional
# Details: CEM13, 72 h
row,Structure (SMILES),inhibition at 300 µM
1,Cc1c(C)c2c(c(C)c1OC(=O)CCC(=O)O)CCC(C)(C(=O)NC1CC(C)(C)N([O])C(C)(C)C1)O2 (stereo not given),30%

# System: not listed separately
# Assay: Cytotoxicity against human HepG2 cells assessed as reduction in cell viability at 300 uM after 72 hrs by MTT assay
# Type: functional
# Details: HepG2, 72 h
row,Structure (SMILES),inhibition at 300 µM
1,Cc1c(C)c2c(c(C)c1OC(=O)CCC(=O)O)CCC(C)(C(=O)NC1CC(C)(C)N([O])C(C)(C)C1)O2 (stereo not given),44%

# System: not listed separately
# Assay: Cytotoxicity against mouse LMTK cells assessed as reduction in cell viability at 300 uM after 72 hrs by MTT assay
# Type: toxicity
# Details: read-out: INH
row,Structure (SMILES),"cytotoxicity at 72 h, 300 µM"
1,Cc1c(C)c2c(c(C)c1OC(=O)CCC(=O)O)CCC(C)(C(=O)NC1CC(C)(C)N([O])C(C)(C)C1)O2 (stereo not given),0%

# System: not listed separately
# Assay: Cytotoxicity against mouse LMTK cells assessed as reduction in cell viability after 72 hrs by MTT assay
# Type: toxicity
# Details: not given
row,Structure (SMILES),IC50 at 72 h
1,Cc1c(C)c2c(c(C)c1OC(=O)CCC(=O)O)CCC(C)(C(=O)NC1CC(C)(C)N([O])C(C)(C)C1)O2 (stereo not given),> 300 µM

# System: Salmonella enterica subsp. enterica serovar Typhimurium
# Assay: Antioxidant activity in Salmonella typhimurium TA102 harboring […] mutant assessed as inhibition of t-BuO2H-dependant mutant formation at 0.3 uM preincubated with compound followed by t-BuO2H addition after 48 hrs by Ames test
# Type: functional
# Details: not given
row,Structure (SMILES),inhibition
1,Cc1c(C)c2c(c(C)c1OC(=O)CCC(=O)O)CCC(C)(C(=O)NC1CC(C)(C)N([O])C(C)(C)C1)O2 (stereo not given),10%
